≈ marks a conversion by molar mass, not a printed value.
Key:
[1] = Solubility in water at various pH-values; format: physicochemical; settings: aqueous buffer, thermodynamic from solid; in 0.01% HCl; 100 mg in 190 mL; read-out: solubility limit
[2] = Solubility in water at various pH-values; format: physicochemical; settings: for pH solution / soluble / calculated concentration charged: 500 mg in 14 ml; for soluble: conc. 33.33 mg/mL; for calculated concentration charged: not soluble
Protocol: The solubilities in water of 6-(4-(tert-butyl)phenoxy)pyridin-3-amine (formula (Ia)) and the monohydrochloride salt thereof, i.e. 6-(4-(tert-butyl)phenoxy)pyridin-3-amine monohydrochloride, were assessed at various pH-values according to Tables 3 and 4. The solubility in water of 6-(4-(tert-butyl)phenoxy)pyridin-3-amine (formula (Ia)) according to Table 3 was assayed as follows: Free base 500 mg were charged into 14 mL of acidic media at pH=2, 4, at neutral pH=7 and basic pH=10 to afford suspensions within calculated concentration of appr. 35 mg/mL. The solubility in water of 6-(4-(tert-butyl)phenoxy)pyridin-3-amine monohydrochloride according to Table 4 was assayed as follows: HCl salt 100 mg each were charged into acidic media at pH=2 and 4 and neutral media pH=7 to furnish solutions. Most important observation was to that at a neutral solution at pH=7 drops down to pH=1 by charging HCl salt 100 mg.

[3] = 15% acetic acid soln., pH solvent 2

CC(C)(C)c1ccc(Oc2ccc(N)cn2)cc1 [6-(4-(tert-butyl)phenoxy)pyridin-3-amine]
solubility [1]: 530 µg/mL (≈ 2190 µM)
pH solution [2, 3]: 2
soluble [2, 3]: no
calculated concentration charged [2, 3]: 33.33 mg/mL
pH solution ([2]; Fluke 33643 (pH = 4)): 4
soluble ([2]; Fluke 33643 (pH = 4)): no
calculated concentration charged ([2]; Fluke 33643 (pH = 4)): 33.33 mg/mL
pH solution ([2]; Fluke 33646 (pH = 7)): 7
soluble ([2]; Fluke 33646 (pH = 7)): no
calculated concentration charged ([2]; Fluke 33646 (pH = 7)): 33.33 mg/mL
pH solution ([2]; Fluke 33649 (pH = 10)): 10
soluble ([2]; Fluke 33649 (pH = 10)): no
calculated concentration charged ([2]; Fluke 33649 (pH = 10)): 33.33 mg/mL
solubility in water ([2]; water, in words): very poorly soluble

From patent US11472771B2, “Process for making amino diaryl ethers and amino diaryl ethers hydrochloride salts” (CELLESTIA BIOTECH AG, priority 2018, dated 2022)
